{"source": "patent US11299760B2", "about": "(Amgen Inc., priority 2013, dated 2022)", "key": {"Cells producing MAb A": {"tested_on": "Cells producing MAb A", "test": "mock perfusion assay, glycan analysis", "type": "cell-based, Chinese hamster", "details": "for Man5 / Man6 / Man7 / Man8a / Man8b / Man9: day 10", "experimental": "(§1) Mock perfusion assay is a small scale, plate-based assay that is designed to mimic perfusion conditions in bioreactors through daily medium exchanges. For a 10-day mock perfusion assay, passaging cultures of various production cell lines were diluted 1:5 into chemically defined base perfusion medium in a 24 deep-well plate at a final volume of 3 ml per well. Mock perfusion was initiated on day 3 when the cells were spun down at 1000 rpm for 5 minutes and 25% of each spent culture medium was exchanged with the equivalent volume of fresh perfusion media. Subsequent medium exchange percentages were 40% on days 4-8 and 50% on day 9. Exchanged supernatants were stored at 4° C. prior to analysis.\n(§2) Analysis of cell culture parameters was also started on day 3; viable cell density and viability were analyzed using the ViaCount Guava assay as previously described. Glucose was measured daily starting on day 3 and was maintained at 12 g/l. Stored supernatants were analyzed for antibody titer as described previously. Samples of supernatant fluid from days 6, 8 and 10 were also analyzed for the presence and type of glycans by HILIC analysis.\n(§3) The cell lines used included three production cell lines that are known to generate mAbs with low high mannose glycans (MAb A, MAb B and MAb C) and one production cell line that consistently produces product with high levels of high mannose glycans (MAb D). […] Equivalent volumes of methanol were added daily to control cultures (columns 1 and 2 of the 24-well plate). This scheme is depicted below:\n(§4) Total high mannose values (Total HM column) and the corresponding distributions into high mannose species from Man5 through Man9 were determined for purified antibody samples collected on day 10. Each value shown in Table 4 represents an average of duplicates."}, "Cells producing MAb B": {"tested_on": "Cells producing MAb B", "test": "mock perfusion assay, glycan analysis", "type": "cell-based, Chinese hamster", "details": "for Man5 / Man6 / Man7 / Man8a / Man8b / Man9: day 10", "experimental": "as §1, §2, §3, §4"}, "Cells producing MAb D": {"tested_on": "Cells producing MAb D", "test": "mock perfusion assay, glycan analysis", "type": "cell-based, Chinese hamster", "details": "for Man5 / Man6 / Man7 / Man8a / Man8b / Man9: day 10", "experimental": "as §1, §2, §3, §4"}, "[1]": {"tested_on": "recombinant cell line producing MAb E", "test": "ATF bioreactors, high mannose analysis (RP-HPLC/MS)", "type": "cell-based", "experimental": "The applicability of using monensin to modulate high mannose levels in a large scale, controlled production setting was evaluated using a recombinant cell line producing MAb E in alternating tangential flow (ATF) bioreactors. MAb E cells grown in growth medium for the seed train were used to inoculate the N-1 bioreactor at 6×10^5 cells/ml in growth medium. The cells from N-1 bioreactor were then used to inoculate three, 2 L production bioreactors (N) at 7.5×10^5 cells/ml in base perfusion medium (referred to as control, Ra, and Rb bioreactors).\nThe production bioreactors were grown for 20 days at pH 7.00, 36° C., 30% DO and 400 rpm agitation. These production tanks were run with the ATF system starting on day 3 with 0.5 vol/day perfusion rate, which was increased to 0.6 vol/day, 0.8352 vol/day and 1 vol/day on day 6, 7 and 8, respectively. Glucose levels were maintained separately at 5 g/L since the perfusion medium was prepared without glucose.\nAntifoam was also added into the tank as needed, while 1M Sodium Carbonate was used to maintain pH at the desired setpoint. Daily tank samples were collected for the measurement of various cell culture parameters as well as for the titer and high mannose analyses.\nSixty micrograms of daily MAb E samples collected from ATF bioreactors were digested into the Fc/2 and Fab′2 with 60 units of the IdeS enzyme (fabRICATOR, Genovis, Lund, Sweden) in 50 mM Sodium Phosphate, 150 mM NaCl, pH 6.6 with incubation in a 37° C. water bath for 30 minutes. The digested samples were then reduced in 4M Guanidine Hydrochloride 50 mM Tris, pH 8.3 with 50 mM DTT followed by incubation in a 55° C. heat block for 10 minutes resulting in reduction to Fc/2, LC and Fd.\nFollowing digestion and reduction, samples were analyzed immediately by RP-HPLC/MS.\nAnalysis was performed using Waters Acquity Ultra-Performance liquid chromatography (UPLC) system (Waters, Milford, Mass.) coupled to an Agilent MST Time of Flight (TOF) mass spectrometer (Agilent Technologies, Santa Clara, Calif.). The digested and reduced samples were separated on a reversed-phased Waters BEH Phenyl column (1.7 micron particle size, 2.1×150 mm; Waters, Milford, Mass.) maintained at 80° C. […]\nFive micrograms of each sample was injected and eluted at a flow rate of 0.5 mL/min with the following gradient: 30% B was held for 2.5 minutes followed by a gradient from 30% to 45% B over a duration of 5 minutes, followed by a gradient from 45% to 100% B over 0.5 minutes; B was held at 100% for 4 minutes, followed by a gradient of 100% to 30% B over 0.1 minutes, and then held at 30% B for the remaining 2.9 minutes. The UV elution was also monitored at a wavelength of 220 nm. […] Ion intensities of the deconvoluted peaks were used for quantification of the glycan species."}, "[2]": {"details": "constant monensin 25 nM from day 3, Day 6"}, "[3]": {"details": "constant monensin 25 nM from day 3, Day 8"}, "[4]": {"details": "constant monensin 25 nM from day 3, Day 10"}, "[5]": {"details": "increasing monensin (25 nM day 4, 50 nM days 5-6, 100 nM days 7-9), Day 6"}, "[6]": {"details": "increasing monensin (25 nM day 4, 50 nM days 5-6, 100 nM days 7-9), Day 8"}, "[7]": {"details": "increasing monensin (25 nM day 4, 50 nM days 5-6, 100 nM days 7-9), Day 10"}, "[8]": {"details": "increasing monensin (to 100 nM)"}, "[9]": {"details": "500 nM monensin for ~22 hours from day 8, MAb E"}}, "data": [{"compound": "CC[C@@]1([C@@H]2O[C@@H]([C@H]3O[C@@](O)(CO)[C@H](C)C[C@@H]3C)C[C@@H]2C)CC[C@H]([C@]2(C)CC[C@]3(C[C@H](O)[C@@H](C)[C@@H]([C@@H](C)[C@@H](OC)[C@H](C)C(=O)O)O3)O2)O1", "note": "[monensin]", "values": [{"measurement": "Total HM", "setting": "Cells producing MAb A; [2]", "value": 55.7, "unit": "%"}, {"measurement": "Total HM", "setting": "Cells producing MAb A; [3]", "value": 19.7, "unit": "%"}, {"measurement": "Total HM", "setting": "Cells producing MAb A; [4]", "value": 9, "unit": "%"}, {"measurement": "Man5", "setting": "Cells producing MAb A; constant monensin 25 nM", "value": 5.6, "unit": "%"}, {"measurement": "Man6", "setting": "Cells producing MAb A; constant monensin 25 nM", "value": 1.2, "unit": "%"}, {"measurement": "Man7", "setting": "Cells producing MAb A; constant monensin 25 nM", "value": 1.0, "unit": "%"}, {"measurement": "Man8a", "setting": "Cells producing MAb A; constant monensin 25 nM", "value": 0.4, "unit": "%"}, {"measurement": "Man8b", "setting": "Cells producing MAb A; constant monensin 25 nM", "value": 0.6, "unit": "%"}, {"measurement": "Man9", "setting": "Cells producing MAb A; constant monensin 25 nM", "value": 0.2, "unit": "%"}, {"measurement": "Total HM", "setting": "Cells producing MAb A; increasing monensin (25 nM day 4, 50 nM days 5-9), Day 6", "value": 61.9, "unit": "%"}, {"measurement": "Total HM", "setting": "Cells producing MAb A; increasing monensin (25 nM day 4, 50 nM days 5-9), Day 8", "value": 44.9, "unit": "%"}, {"measurement": "Total HM", "setting": "Cells producing MAb A; increasing monensin (25 nM day 4, 50 nM days 5-9), Day 10", "value": 23.2, "unit": "%"}, {"measurement": "Man5", "setting": "Cells producing MAb A; increasing monensin (to 50 nM)", "value": 14.2, "unit": "%"}, {"measurement": "Man6", "setting": "Cells producing MAb A; increasing monensin (to 50 nM)", "value": 3.7, "unit": "%"}, {"measurement": "Man7", "setting": "Cells producing MAb A; increasing monensin (to 50 nM)", "value": 1.9, "unit": "%"}, {"measurement": "Man8a", "setting": "Cells producing MAb A; increasing monensin (to 50 nM)", "value": 0.6, "unit": "%"}, {"measurement": "Man8b", "setting": "Cells producing MAb A; increasing monensin (to 50 nM)", "value": 1.4, "unit": "%"}, {"measurement": "Man9", "setting": "Cells producing MAb A; increasing monensin (to 50 nM)", "value": 0.4, "unit": "%"}, {"measurement": "Total HM", "setting": "Cells producing MAb B; [2]", "value": 9.6, "unit": "%"}, {"measurement": "Total HM", "setting": "Cells producing MAb B; [3]", "value": 4.6, "unit": "%"}, {"measurement": "Total HM", "setting": "Cells producing MAb B; [4]", "value": 4.0, "unit": "%"}, {"measurement": "Man5", "setting": "Cells producing MAb B; constant monensin 25 nM", "value": 2.2, "unit": "%"}, {"measurement": "Man6", "setting": "Cells producing MAb B; constant monensin 25 nM", "value": 0.7, "unit": "%"}, {"measurement": "Man7", "setting": "Cells producing MAb B; constant monensin 25 nM", "value": 0.5, "unit": "%"}, {"measurement": "Man8a", "setting": "Cells producing MAb B; constant monensin 25 nM", "value": 0.3, "unit": "%"}, {"measurement": "Man8b", "setting": "Cells producing MAb B; constant monensin 25 nM", "value": 0.3, "unit": "%"}, {"measurement": "Man9", "setting": "Cells producing MAb B; constant monensin 25 nM", "value": 0.0, "unit": "%"}, {"measurement": "Total HM", "setting": "Cells producing MAb B; [5]", "value": 13.2, "unit": "%"}, {"measurement": "Total HM", "setting": "Cells producing MAb B; [6]", "value": 12.4, "unit": "%"}, {"measurement": "Total HM", "setting": "Cells producing MAb B; [7]", "value": 14.0, "unit": "%"}, {"measurement": "Man5", "setting": "Cells producing MAb B; [8]", "value": 7.7, "unit": "%"}, {"measurement": "Man6", "setting": "Cells producing MAb B; [8]", "value": 3.0, "unit": "%"}, {"measurement": "Man7", "setting": "Cells producing MAb B; [8]", "value": 2.0, "unit": "%"}, {"measurement": "Man8a", "setting": "Cells producing MAb B; [8]", "value": 0.3, "unit": "%"}, {"measurement": "Man8b", "setting": "Cells producing MAb B; [8]", "value": 0.9, "unit": "%"}, {"measurement": "Man9", "setting": "Cells producing MAb B; [8]", "value": 0.1, "unit": "%"}, {"measurement": "Total HM", "setting": "Cells producing MAb D; [2]", "value": 70.6, "unit": "%"}, {"measurement": "Total HM", "setting": "Cells producing MAb D; [3]", "value": 80.1, "unit": "%"}, {"measurement": "Total HM", "setting": "Cells producing MAb D; [4]", "value": 72.6, "unit": "%"}, {"measurement": "Man5", "setting": "Cells producing MAb D; constant monensin 25 nM", "value": 30.4, "unit": "%"}, {"measurement": "Man6", "setting": "Cells producing MAb D; constant monensin 25 nM", "value": 14.7, "unit": "%"}, {"measurement": "Man7", "setting": "Cells producing MAb D; constant monensin 25 nM", "value": 15.3, "unit": "%"}, {"measurement": "Man8a", "setting": "Cells producing MAb D; constant monensin 25 nM", "value": 0.7, "unit": "%"}, {"measurement": "Man8b", "setting": "Cells producing MAb D; constant monensin 25 nM", "value": 10.1, "unit": "%"}, {"measurement": "Man9", "setting": "Cells producing MAb D; constant monensin 25 nM", "value": 1.4, "unit": "%"}, {"measurement": "high mannose species upregulated", "setting": "Cells producing MAb D; increasing dose of monensin", "value": "primarily upregulated Man7 and Man8(b) high mannose glycans"}, {"measurement": "Total HM", "setting": "Cells producing MAb D; [5]", "value": 83.0, "unit": "%"}, {"measurement": "Total HM", "setting": "Cells producing MAb D; [6]", "value": 92.5, "unit": "%"}, {"measurement": "Total HM", "setting": "Cells producing MAb D; [7]", "value": 94.9, "unit": "%"}, {"measurement": "Man5", "setting": "Cells producing MAb D; [8]", "value": 12.8, "unit": "%"}, {"measurement": "Man6", "setting": "Cells producing MAb D; [8]", "value": 14.9, "unit": "%"}, {"measurement": "Man7", "setting": "Cells producing MAb D; [8]", "value": 27.2, "unit": "%"}, {"measurement": "Man8a", "setting": "Cells producing MAb D; [8]", "value": 0.8, "unit": "%"}, {"measurement": "Man8b", "setting": "Cells producing MAb D; [8]", "value": 34.3, "unit": "%"}, {"measurement": "Man9", "setting": "Cells producing MAb D; [8]", "value": 5.0, "unit": "%"}, {"measurement": "high mannose levels, initial spike", "setting": "[1]; [9]", "value": "35-50%"}, {"measurement": "increase in the levels of high mannose glycans on the recombinant antibodies", "setting": "[1]; [9]", "value": "9-10 fold"}, {"measurement": "high mannose levels on the day of the harvest", "setting": "[1]; after flushing out of monensin by perfusion, MAb E", "value": "15-17%"}, {"measurement": "produced antibodies containing high mannose glycans at peak", "setting": "[1]; day 10, 500 nM monensin for ~22 hours from day 8, from predicted and measured levels", "value": 89, "unit": "%"}]}]}
